Data set [1] has as its target T1, rat sEH (Rattus norvegicus, UniProt P80299).
T1 construct: made in house; host or cells: insect High Five cells (recombinant baculovirus)
T1 sequence (P80299 1-554): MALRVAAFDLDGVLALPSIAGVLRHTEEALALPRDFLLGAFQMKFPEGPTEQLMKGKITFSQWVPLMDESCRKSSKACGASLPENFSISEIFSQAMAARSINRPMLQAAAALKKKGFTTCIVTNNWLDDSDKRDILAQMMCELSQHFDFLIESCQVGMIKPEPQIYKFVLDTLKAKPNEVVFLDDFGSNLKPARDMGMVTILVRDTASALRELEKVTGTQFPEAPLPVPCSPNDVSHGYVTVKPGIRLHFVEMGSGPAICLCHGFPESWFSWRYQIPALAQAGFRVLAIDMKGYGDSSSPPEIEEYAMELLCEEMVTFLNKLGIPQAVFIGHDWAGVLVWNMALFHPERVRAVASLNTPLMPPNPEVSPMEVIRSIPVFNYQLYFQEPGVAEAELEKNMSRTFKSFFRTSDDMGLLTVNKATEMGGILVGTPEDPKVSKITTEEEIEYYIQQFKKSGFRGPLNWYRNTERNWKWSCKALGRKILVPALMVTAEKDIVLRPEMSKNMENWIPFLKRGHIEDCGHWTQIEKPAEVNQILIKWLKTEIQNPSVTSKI
Nature of the data set: sEH inhibition by fluorescent assay (CMNPC assay), rat enzyme. The data set is classed as biochemical. The settings on record: for IC50: CMNPC substrate, recombinant enzyme. The procedure:
(§1) Recombinant sEH was produced in insect High Five cells using recombinant baculovirus expression vectors, and purified by affinity chromatography as reported previously. The enzyme appeared as a single band (0.3 μg loading) with an estimated purity of more than 95% by Coomassie Brilliant Blue staining following SDS-PAGE separation. The final recombinant sEH preparations had no esterase or glutathione S-transferase activities, which interfere with the CMNPC assay as described below.
(§2) IC50 values were determined as described previously using cyano (2-methoxynaphthalen-6-yl) methyl trans-(3-phenyl-oxyran-2-yl) methyl carbonate (CMNPC) as a fluorescent substrate. Recombinant sEH (0.96 nM) was incubated with inhibitors for 5 min in 25 mM bis-Tris/HCl buffer (pH 7.0) containing 0.1 mg/mL of BSA at 30°C prior to substrate introduction ([S] = 5 μM). Activity was measured by determining the appearance of the 6-methoxy-2-naphthaldehyde with an excitation wavelength of 330 nm and an emission wavelength of 465 nm for 10 min.

For the next data set, the target named is T2, human sEH (Homo sapiens, UniProt P34913).
T2 construct: made in house; host or cells: insect High Five cells (recombinant baculovirus)
T2 sequence (P34913 1-555): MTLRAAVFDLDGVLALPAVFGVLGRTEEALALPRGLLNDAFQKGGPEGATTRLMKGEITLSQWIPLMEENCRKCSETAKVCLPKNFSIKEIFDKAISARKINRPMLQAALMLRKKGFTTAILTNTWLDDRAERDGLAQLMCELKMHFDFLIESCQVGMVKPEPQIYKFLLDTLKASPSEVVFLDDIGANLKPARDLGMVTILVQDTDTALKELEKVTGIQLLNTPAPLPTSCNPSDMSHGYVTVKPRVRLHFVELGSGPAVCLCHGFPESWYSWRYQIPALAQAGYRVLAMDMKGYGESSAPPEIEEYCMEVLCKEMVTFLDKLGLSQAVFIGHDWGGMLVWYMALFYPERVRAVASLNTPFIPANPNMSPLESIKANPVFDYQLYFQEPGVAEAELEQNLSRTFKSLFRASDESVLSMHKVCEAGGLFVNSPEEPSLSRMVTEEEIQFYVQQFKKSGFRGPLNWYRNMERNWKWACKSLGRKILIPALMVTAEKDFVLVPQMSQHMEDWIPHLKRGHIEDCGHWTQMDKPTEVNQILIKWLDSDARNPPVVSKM
Nature of the data set: sEH inhibition by fluorescent assay (CMNPC assay), human enzyme. Type of data set: biochemical. The procedure: as §1, §2

Another data set is described as follows: Solubility. Type of data set: physicochemical.
Data set [2] in a line: Pharmacokinetics after oral gavage (cassette dosing). Type of data set: in vivo. Particulars: mice; for oral availability, comparison: gavage, compound 3 and AEPU 10 mg/kg, TPPU 0.3 mg/kg; for blood level of demethoxy metabolite after oral compound 3: compound 3 10 mg/kg oral, LOQ < 9.8 nM in blood. The procedure: (§3) Pharmacokinetic profiles of the inhibitors were determined by following the procedure described previously in literature with some modifications. Male Swiss Webster mice (7 weeks old, 24–30 g) were purchased from Charles River Laboratories. Inhibitors were dissolved in polyethylene glycol (average molecular weight: 300) to give a clear solution for oral administration. […] Blood (10 μL) was collected from the tail vein using a pipet tip rinsed with EDTA. The blood samples were prepared according to the methods detailed previously, and blood samples were analyzed by LC-MS/MS.

Data set [3] can be described thus: Blood concentration during the pain assay after dermal treatment. Type of data set: in vivo. The settings on record: rat; for Concentration of demethoxy metabolite: after dermal treatment of compound 3 (6 mg/paw). Here is the method:
(§4) Male Sprague-Dawley rats weighing 225–250 g were obtained from Charles River Laboratories and maintained in the UC Davis animal housing facility with ad libitum water and food on a 12 h/12 h light-dark cycle. Behavioral nociceptive testing was conducted by assessing mechanical withdrawal threshold using an electronic von Frey anesthesiometer apparatus (IITC, Woodland Hills, CA) as described previously. The analgesic effect of compound 3 was tested using the intraplantar carrageenan-induced local inflammatory pain model. Following baseline measurements, carrageenan (50 μL, 1% solution of carrageenan in ddH2O) was administered into the plantar area of one hind paw. At 4 h post administration of carrageenan, responses were measured, and immediately after these measurement, 3 (3% in PEG400/Vanicream™ (Pharmaceutical Specialties, Inc. Rochester, MN) = 3:7, 6 mg of compound/paw), the synthetic sEH inhibitor triclocarban (TCC, 3%), or the vehicle (200 μL of PEG400/Vanicream™) was administered onto the inflamed paw by topical application. The cream was thoroughly massaged across the entire hind paw surface over a 1–2 min period. Subsequently, the ability of these treatments to reduce the carrageenan-induced inflammatory pain was monitored over the course of 4 h.
as §3

Data set [4] relates to carrageenan-induced inflammatory pain. Nature of the data set: Nociceptive assay, carrageenan-induced inflammatory pain model, topical application. Type of data set: in vivo. Particulars: rat, 6 mg/paw in PEG400/Vanicream, monitored 4 h, p ≤ 0.001. The procedure:
as §4
Data were analyzed using SigmaPlot 11.0 for Windows (Systat Software Inc., San Jose, CA). […]

Data set [5] shares this test system. Nature of the data set: Carrageenan-induced inflammatory pain model, intraplantar administration. Type of data set: in vivo. The settings on record: rat, 10 µg/paw, p<0.05 vs. vehicle. Here is the method:
S8 Fig. Intraplantar administration of compound 3 effectively reduces carrageenan-induced inflammatory pain in rat. Administration of the inflammatory agent carrageenan (CAR) induces a stable hyperalgesic response for the duration of the experiment. Treatment with 3 (▲, 10 µg/paw, intraplantar), morphine (●, 10 µg/paw, intraplantar) or the potent synthetic sEH inhibitor (1-(1-(Cyclopropanecarbonyl) piperidin-4-yl)-3-(4- […]
pain levels (Kruskal-Wallis One Way ANOVA on Ranks, p≤0.001, Tukey’s post hoc test (compound 3 vs. vehicle, morphine vs. vehicle, TPCU vs. vehicle, p<0.05). Mean ± SE (n=6) of mechanical withdrawal threshold (% of naïve baseline) are shown. Vehicle (○), morphine (●), and TPCU (△) treatment data are from Rose et al., (2010).
(1 picture or pasted object on this page, not shown here)

The conditions of data set [6]: value marked with footnote c, text of footnote not shown; cited from earlier work.
The target in data set [7] is T1, rat sEH. Further details: method as in PMID 21381656. Particulars: value marked with footnote e; cited from earlier work.
The test system of data set [8] is carrageenan-induced inflammatory pain. On the set-up: method as in Rose et al., (2010). Particulars: rat, intraplantar, morphine 10 µg/paw, TPCU 10 ng/paw; ref Rose et al., (2010); cited from earlier work.
Setting [9] is: CMNPC substrate, recombinant enzyme, read-out: Human sEH IC50.
The mark [10] stands for this setting: S2 Table, unit inferred, read-out: hsEH IC50.

Structures are written as SMILES. Values after ≈ are worked out from the molar mass of the structure shown. Values joined by “and” are separate entries in the source; they are usually repeats but may differ in a detail not shown here. Identical values can stand only once. “Also recorded” adds a separate entry of the source. Like-named read-outs stand apart in the source and are kept apart here.

By IC50 is commonly meant the midpoint of a concentration-inhibition curve. As to `COc1ccc(CNC(=O)NCc2ccccc2)cc1` [BMU, reference compound], on rat sEH [1], the IC50 stood at 182 nM.
Same read-out and setting: as for `O=C(NCc1ccccc1)NCc1ccccc1` [Compound 1, 1,3-Dibenzylurea], the figure is 385 nM.
On to `COc1cccc(CNC(=O)NCc2ccccc2)c1` [Compound 2, 1-Benzyl-3-(3-methoxybenzyl) urea], for which the values for the IC50 at rat sEH [1] and on human sEH (setting [9]) were 308 nM and 534 nM, respectively. Besides, the “lower potency on human sEH than compound 3” value on human sEH was “approximately 2 fold”.
With `COc1cccc(CNC(=O)NCc2cccc(OC)c2)c1` [Compound 3, 1,3-Bis (3-methoxybenzyl) urea], the “solubility higher than MMU” value in “Solubility” was “approximately 10 fold”. In addition, the “absorption following oral administration” value in data set [2] (10 mg/kg by gavage in PEG300) is given as “rapidly absorbed”. In addition, in data set [2], the “oral availability, comparison” value is “higher than that of AEPU”. In data set [2] (oral 10 mg/kg, based on area under the curve values), the “portion of compound 3 metabolized into compound 6” value was “approximately 66%”. For the same compound, in [3] (male, Sprague-Dawley, whole blood, topical, dermal 6 mg/paw, after 4 hours), the concentration at 4 h is over 3000 nM. For the same compound, in data set [3] (dermal 6 mg/paw, at 30 min), the “blood concentration at peak” value is “higher than 40 μM”. Moreover, the permeability through skin entry in data set [3] (dermal 6 mg/paw, concluded from blood concentration) is given as “high permeability through skin”. The IC50 on rat sEH [1] is 155 nM; at human sEH (setting [9]), 222 nM and ~200 nM. Further, the “carrageenan induced inflammatory pain (mechanical withdrawal threshold)” value in data set [4] is given as “significantly reduced carrageenan induced inflammatory pain; also recorded: significantly reduced pain levels”. For the same compound, the “less potent than MMU” value on human sEH (human sEH) was “approximately 2 fold”. In addition, in [5], the “carrageenan-induced inflammatory pain (mechanical withdrawal threshold)” value (from here on “carrageenan-induced inflammatory pain”) is listed as “significantly reduced”.
For `COc1cccc(CNC(=O)NCc2cccc(O)c2)c1` [Compound 6, 1-(3-Hydroxybenzyl)-3-(3-methoxybenzyl) urea], the “blood level of demethoxy metabolite after oral compound 3” value in [2] was “detected at similar concentrations to compound 3”. Further, the “Concentration of demethoxy metabolite” value in data set [3] was “below 200 nM”. Besides, the IC50 on rat sEH [1] and on human sEH (read-out: human sEH IC50) was 1300 nM each time.
As for `O=C(NCc1cccc(O)c1)NCc1cccc(O)c1` [Compound 7, 1,3-Bis(3-hydroxybenzyl)urea], in [2], the “blood level of demethoxy metabolite after oral compound 3” value is recorded as “not detected”. For the same compound, the “Concentration of demethoxy metabolite” value in data set [3] was “below 200 nM”. Also, the IC50 turned out to be 9600 nM at rat sEH [1] and 2700 nM on human sEH (setting [10]).
The term solubility denotes the concentration that dissolves in the medium under given conditions. Compound `O=C(NCCc1ccccc1)NCCc1ccccc1` [Compound 8, 1,3-Diphenethylurea] returned a solubility in “Solubility” of 33 ± 11 µM (≈ 8.86 µg/mL). Besides, the IC50 on rat sEH [1] came to 71 nM; at human sEH (setting [10]), 233 nM. Further, the “sEH inhibitory potency in words” value at human sEH is “moderate sEH inhibitory potency”.
As to `S=C(NCCc1ccccc1)NCCc1ccccc1` [Compound 9, 1,3-Diphenethylthiourea], the IC50 on rat sEH [1] stood at 3300 nM; on human sEH (setting [9]) it was 2400 nM; on human sEH (setting [10]), 134 nM.
Take `O=C(NCCc1ccccc1)NCCc1ccc(O)cc1` [Compound 10, 1-(4-Hydroxyphenethyl)-3-phenethylurea]: the IC50 came out at 129 nM at rat sEH [1], 134 nM on human sEH (setting [9]) and 71.6 nM on human sEH (setting [10]). The “sEH inhibitory potency in words” value on human sEH is listed as “slightly higher inhibitory potency on sEH than the parent”.
`COc1ccc(CNC(=O)NCc2ccc(OC)cc2)cc1` [MMU, reference compound]: the IC50 on rat sEH [1] turned out to be 218 nM. In addition, the solubility in data set [6] is 11 ± 2 µM (≈ 3.3 µg/mL).
For `O=S(=O)(O)ON=C(CCc1ccccc1)SC1OC(CO)C(O)C(O)C1O` (stereo not drawn) [Phenethyl glucosinolate, reference compound], the IC50 at rat sEH [1] and at human sEH (setting [9]) was over 10000 nM each time.
`S=C=NCCc1ccccc1` [Phenethyl isothiocyanate, reference compound]: the IC50 on rat sEH [1] and on human sEH (setting [9]) was over 10000 nM throughout.
Turning to `O=C(Nc1ccc(Cl)cc1)Nc1ccc(Cl)c(Cl)c1` [TCC, triclocarban, reference compound], the IC50 on rat sEH [7] is 27 nM. For the same compound, the “more potent than compound 3 on rat sEH” value at rat sEH [1] is “approximately 6 fold”. In [4], the “carrageenan induced inflammatory pain (mechanical withdrawal threshold)” value was “significantly reduced carrageenan induced inflammatory pain; also recorded: significantly reduced pain levels”.
Consider `O=C(Nc1ccc(OC(F)(F)F)cc1)NC1CCN(C(=O)C2CC2)CC1` [TPCU, 1-(1-(Cyclopropanecarbonyl)piperidin-4-yl)-3-(4-(trifluoromethoxy)phenyl) urea], for which the “carrageenan-induced inflammatory pain” value in data set [8] is “significantly reduced”.
Turning to `CCC(=O)N1CCC(NC(=O)Nc2ccc(OC(F)(F)F)cc2)CC1` [TPPU, 1-trifluoromethoxyphenyl-3-(1-propionylpiperidin-4-yl) urea, reference compound], the “oral availability, comparison” value in data set [2] is on record as “much higher bioavailability than compound 3”.
Take `CN1CC[C@]23c4c5ccc(O)c4O[C@H]2[C@@H](O)C=C[C@H]3[C@H]1C5` [morphine]: in data set [8], the “carrageenan-induced inflammatory pain” value is recorded as “significantly reduced”.

These data come from PMC5417501, “Occurrence of urea-based soluble epoxide hydrolase inhibitors from the plants in the order Brassicales” (PLoS ONE, 2017).
